# Assays:
# [1] = test system: wild-type Yarrowia lipolytica strain (PO1f, ATCC MYA-2613); assay: Growth inhibition and glucose consumption of the parent strain according to furfural concentration (Reference Example 1); format: cell-based
# Text: Confirmation of the degree of growth inhibition according to furfural in a parent strain Prior to the production of furfural-resistant strains, Yarrowia lipolytica PO1f strain having accession number ATCC MYA-2613, which are wild-type Yarrowia lipolytica, was selected as a parent strain, and the degree of growth inhibition and the degree of glucose consumption according to the concentration of furfural in the wild-type Yarrowia lipolytica strain, and the concentrations of furfural and furoic acid in the culture medium according to the cell culture time were confirmed.
# Specifically, as the culture medium, a minimal medium (YSC medium (Yeast Synthetic Complete medium)) containing 6.7 g/L yeast nitrogen base (YNB), 20 g/L glucose as a carbon source and supplemented with complete supplement mixture (CSM) or CSM-Leu or CSM-Leu-Ura (MP Biomedicals, Solon, OH, USA) used. Furfural was added to the medium at concentrations of 0.1 g/L, 0.2 g/L, 0.3 g/L, 0.4 g/L or 0.5 g/L, respectively, and the growth rate was compared with that when furfural was not added. The culture was inoculated with the wild-type Yarrowia lipolytica strain with an initial OD600 value of 0.2 in 20 mL of the culture medium in a 100 mL Erlenmeyer flask, and then proceeded with shaking culture at 28° C. at 200 rpm. In this case, the wild-type strain is Yarrowia lipolytica PO1f strain with accession number ATCC MYA-2613. The “OD600” refers to the absorbance or optical density at a wavelength of 600 nm. It is possible to measure the density or concentration of microorganisms or cells in a sample by using the measured OD600.
# [2] = test system: Yarrowia lipolytica strain; conditions: very low concentration (~0.5 g/L) of furfural; cited from earlier work
# [3] = furfural 0.1-0.5 g/L in YSC medium, 20 g/L glucose, 28° C., 200 rpm
compound,measurement,setting,value
O=Cc1ccco1 [furfural],initial growth of the wild-type strain,[1]; 0.2 g/L or more of furfural,growth was delayed
same,growth of the wild-type strain,[1]; 0.5 g/L of furfural,no growth was observed
same,growth of the wild-type Yarrowia lipolytica strain as the furfural concentration increased,[1]; [3],clearly inhibited
same,rate of glucose consumption as the furfural concentration increased,[1]; [3],reduced
same,cell growth of Yarrowia lipolytica strain,[2],significantly inhibited

# — patent US20240352401A1, “FURFURAL-RESISTANT STRAIN AND METHOD FOR IMPROVING FURFURAL-RESISTANT OF STRAIN” (Korea Institute of Science and Technology, priority 2023, published 2024)
